In patent US11510931B2, “Compositions and methods for treating ophthalmic conditions” (MEDICON PHARMACEUTICALS, INC., priority 2016, dated 2022):

Columns and labels:
eyes of rabbits = test: Safety of topically applied PS in rabbits (toxicity, intraocular pressure, corneal melt, slit lamp); type: in vivo, rabbit
Description: The Safety of Topically Applied PS.

[1] = test system: cornea of New Zealand white rabbits; test: Corneal touch threshold (CTT), Cochet-Bonnet aesthesiometer; type: in vivo, rabbit
Experimental: The analgesic effect of PS was determined by measuring the corneal touch threshold (CTT) using the Luneau Cochet-Bonnet Aeshesiometer (Western Ophthalmics, Lynwood, Wash.), an adjustable nylon monofilament with a defined diameter, which is applied in different lengths to the center of the cornea. This device is generally described in Lima L, Lange R R, Turner-Giannico A, Montiani-Ferreira F. Evaluation of standardized endodontic paper point tear test in New Zealand white rabbits and comparison between corneal sensitivity followed tear tests. Vet Ophthalmol. 2015; 18 Suppl 1:119-24.
A stimulus produced by the filament that reaches the CTT induces a corneal reflex, consisting of prompt eyelid closure. The CTT is quantified as centimeter length of the filament necessary to cause the blink reflex.
The CTT is determined before (baseline) and at various time points after the application of the test compound (PS). PS was formulated either in β-cyclodextrin (42 or 8 mg/ml) or in a nanocarrier (19 mg/ml). The test drug was formulated in a nanocarrier by the emulsion and evaporation method (Vauthier C, Bouchemal K. Methods for the Preparation and Manufacture of Polymeric Nanoparticles. Pharmaceutical Research; 2009; 26:1025-1058). The formulated stable drug suspension consisted of polylactic acid and polyethylene glycol (PLLA(10k)-PEG(2k)); sodium cholate; and PS. The vehicle control was either β-cyclodextrin or the nanocarrier without PS. Commercially available lidocaine 1% was used as a positive control.
To each eye of adult New Zealand white rabbits was applied […] drops of PS or vehicle or lidocaine, with 5 minutes between each drop. The time of the last drop was taken as the 0 time.
The analgesic effect of PS was further examined on the surface of the eye by determining the corneal touch threshold (CTT) using the Luneau Cochet-Bonnet Aesthesiometer (Western Ophthalmics, Lynwood, Wash.) an adjustable nylon monofilament with a defined diameter, which is applied in different lengths to the center of the cornea.

IL-8 = IL-8 levels in the ILG of rabbits with DED (ELISA); type: in vivo, rabbit
Experimental: Using this model, we compared the effect of PS to that of cyclosporine and lifitegrast. Rabbits were treated for 6 days with PS as above or cyclosporine 0.05% or lifitegrast 5% eye drops 3×/day. In addition to determining TUBT, osmolarity and STT, we measured the levels of IL-8 and IL-1β in the ILGs of the rabbits harvested at euthanasia. Both of these cytokines are significant mediators of inflammation in DED. As shown in the table below, PS had statistically significant effects on TBUT, tear osmolarity, IL-8 and IL-1β levels. […] Of note, lifitegrast suppressed STT below the levels of the vehicle group and this suppression was statistically significant, but in the opposite direction for a useful therapeutic effect.
Moreover, for all three cytokines PS suppressed their unstimulated levels as well (62%, 84% and 4.7% reduction, respectively). In addition, PS suppressed the levels of IL-8 by 64% and IL-1β (not expressed by the cultured cells) by 61% in the ILG of rabbits treated with PS for 1 week compared to controls treated with vehicle (FIG. 8B). TGF-β was not detectable by the method in ILG homogenates. All these changes were statistically significant (p<0.001-0.04, except for the unstimulated TGF-β).

JNK and Erk1/2 = test: MAPK activation by phosphorylation in human conjunctival cells (immunoblot); type: cell-based; conditions: 3.5 h, FIG. 6B
Experimental: FIGS. 6A and 6B illustrate that PS suppresses the activation of NF-κB and MAPKs. In FIG. 6A, NF-κB activation was determined by EMSA in cultured human conjunctival cells stimulated with TNFα (top) and in the ILG of rabbits with Con A-induced DED and treated for one week with either vehicle or PS (bottom). In FIG. 6B, immunoblots detecting the activation of MAPKs by phosphorylation in cultured human conjunctival cells treated with PS at the indicated concentrations for 3.5 h. Loading control: β-actin.
Our conjunctiva cells express only the JNK and Erk1/2 pathways.

IL-6 = IL-6 in culture medium of human conjunctival cells (ELISA); type: cell-based
Experimental: Cells were treated with PS 1×IC50 and 2 h later TNF-α was added to the medium to a final concentration of 10 ng/ml. Culture media were harvested 24 h later and the levels of TGF-β, IL-6 and IL-8 were determined by ELISA. Of note, the levels of IL-1β were below the limit of detection.

[2] = Biodistribution of PS in porcine eyes (ex vivo); type: in vitro ADME, pig; conditions: porcine eye ex vivo, 2% PS nanoparticle solution
Description: Biodistribution of PS in porcine eyes (ex vivo): Explanted pig eyes were exposed to PS nanoparticle solution (PS concentration was 2%) and treated as were the human eyes.

[3] = rabbits, 2 weeks of daily PS 3.6% eye drops
[4] = weekly during a 1-month application of PS
[5] = exposure/incubation 1/15 min/min
[6] = exposure/incubation 1/60 min/min
[7] = exposure/incubation 10/15 min/min
[8] = exposure/incubation 10/60 min/min

## CCOP(=O)(OCC)OCCCCOC(=O)CC1=C(C)/C(=C/c2ccc([S+](C)[O-])cc2)c2ccc(F)cc21 (centres unmarked) [PS, phosphosulindac]
Eyes of rabbits; 1-month application of PS
  Intraocular pressure (Tonopen): remained normal
  signs of uveitis: No animal developed signs of uveitis
Eyes of rabbits; rabbits
  tolerability of ocular application: very well tolerated
Eyes of rabbits; rabbits treated for up to 3 weeks
  keratitis or corneal melting (ophthalmological examination): no evidence of keratitis or corneal melting
Eyes of rabbits; [3]
  intraocular pressure: no changes in intraocular pressure
  topical or systemic toxicity: no evidence of topical or systemic toxicity
Eyes of rabbits; [4]
  slit lamp examination: conjunctiva: no evidence of follicular/papillary response or injection of the conjunctiva
  slit lamp examination: corneal abnormalities (staining defects, vascularization, opacification, epithelial defects, stromal thinning, melts): nor were there signs of corneal abnormalities
[1]; PS 8 mg/ml in β-cyclodextrin, 1 min
  Corneal touch threshold (CTT): 5.3 ± 0.7 centimeter
[1]; PS 8 mg/ml in β-cyclodextrin, 5 min
  Corneal touch threshold (CTT): 5.4 ± 0.8 centimeter
[1]; PS 8 mg/ml in β-cyclodextrin, 10 min
  Corneal touch threshold (CTT): 5.6 ± 0.5 centimeter
[1]; PS 8 mg/ml in β-cyclodextrin, 20 min
  Corneal touch threshold (CTT): 5.6 ± 0.5 centimeter
[1]; PS 8 mg/ml in β-cyclodextrin, 30 min
  Corneal touch threshold (CTT): 5.9 ± 0.3 centimeter
[1]; PS 8 mg/ml in β-cyclodextrin, 45 min
  Corneal touch threshold (CTT): 5.9 ± 0.3 centimeter
[1]; PS 8 mg/ml in β-cyclodextrin, 60 min
  Corneal touch threshold (CTT): 5.9 ± 0.3 centimeter
[1]; PS 8 mg/ml in β-cyclodextrin, baseline
  Corneal touch threshold (CTT): 5.9 ± 0.3 centimeter
[1]; PS 19 mg/ml in nanocarrier, 1 min
  Corneal touch threshold (CTT): 5.4 ± 0.6 centimeter
[1]; PS 19 mg/ml in nanocarrier, 5 min
  Corneal touch threshold (CTT): 5.1 ± 0.8 centimeter
[1]; PS 19 mg/ml in nanocarrier, 10 min
  Corneal touch threshold (CTT): 5.3 ± 0.8 centimeter
[1]; PS 19 mg/ml in nanocarrier, 20 min
  Corneal touch threshold (CTT): 5.5 ± 0.7 centimeter
[1]; PS 19 mg/ml in nanocarrier, 30 min
  Corneal touch threshold (CTT): 5.9 ± 0.2 centimeter
[1]; PS 19 mg/ml in nanocarrier, 45 min
  Corneal touch threshold (CTT): 5.9 ± 0.4 centimeter
[1]; PS 19 mg/ml in nanocarrier, 60 min
  Corneal touch threshold (CTT): 5.9 ± 0.2 centimeter
[1]; PS 19 mg/ml in nanocarrier, baseline
  Corneal touch threshold (CTT): 5.9 ± 0.3 centimeter
[1]; PS 42 mg/ml in β-cyclodextrin, 1 min
  Corneal touch threshold (CTT): 2.7 ± 1.0 centimeter
[1]; PS 42 mg/ml in β-cyclodextrin, 5 min
  Corneal touch threshold (CTT): 3.1 ± 1.2 centimeter
[1]; PS 42 mg/ml in β-cyclodextrin, 10 min
  Corneal touch threshold (CTT): 3.7 ± 1.3 centimeter
[1]; PS 42 mg/ml in β-cyclodextrin, 20 min
  Corneal touch threshold (CTT): 4.1 ± 1.4 centimeter
[1]; PS 42 mg/ml in β-cyclodextrin, 30 min
  Corneal touch threshold (CTT): 5.1 ± 1.0 centimeter
[1]; PS 42 mg/ml in β-cyclodextrin, 45 min
  Corneal touch threshold (CTT): 5.6 ± 0.7 centimeter
[1]; PS 42 mg/ml in β-cyclodextrin, 60 min
  Corneal touch threshold (CTT): 5.9 ± 0.2 centimeter
[1]; PS 42 mg/ml in β-cyclodextrin, baseline
  Corneal touch threshold (CTT): 5.9 ± 0.2 centimeter
[1]; single eye drop, naïve rabbits, FIG. 10
  analgesia (CTT): essentially instantaneous and significant analgesia
IL-8; Con A DED rabbits, 6 days, eye drops 3×/day, PS nanoparticles, cyclosporine 0.05%, lifitegrast 5%, mean ± SEM
  IL-8 in the ILG: 4.9 ± 1.7 pg/mg protein
IL-8; rabbits treated with PS for 1 week vs vehicle
  suppression of IL-8 levels in the ILG: 64%
JNK and Erk1/2
  activation by phosphorylation of JNK and Erk1/2: profoundly suppressed
IL-6; TNF-α-stimulated, PS 1×IC50, media at 24 h
  IL-6 reduction: 95%
IL-6; unstimulated levels, PS 1×IC50
  IL-6 reduction: 84%
[2]; [5]
  PS in Cornea: 51.5 µM
  PS in Lens: 9.5 µM
  PS in Sclera: 86.6 µM
[2]; [6]
  PS in Cornea: 99.8 µM
  PS in Lens: 4.8 µM
  PS in Sclera: 123.9 µM
[2]; [7]
  PS in Cornea: 97.1 µM
  PS in Lens: 1.9 µM
  PS in Sclera: 89.9 µM
[2]; [8]
  PS in Cornea: 170.6 µM
  PS in Lens: 2.1 µM
  PS in Sclera: 47.9 µM
